Measurements reported in patent US4342775A, “3-(1-Imidazolyl)-derivatives of 2,3-dihydro-4H-1-benzopyran” (Farmitalia Carlo Erba S.p.A., priority 1980, dated 1982).

What was measured:
[1] = tested on: Icem: CER (SPF Caw) male rats fed standard diet Altromin; test: Experiment No. 2: serum lipids in rats fed standard diet Altromin; type: in vivo, rat; details: 50 mg/kg/os for 4 days; for Serum HDL total cholesterol, mean ± S.E.: ** p < 0.05; for Serum triglycerides, mean ± S.E. / Total serum cholesterol, mean ± S.E. / α/β lipoprotein total cholesterol, mean: *** p < 0.01
Method: (§1) The activity of the compounds of the invention was evaluated on groups of Icem: CER (SPF Caw) male rats either fed for six days with hypercholesterolaemic diet according to C. E. Day [Schurr P. E., Schultz H. R., Day C. E. (Eds) Atherosclerosis and drug discovery--Plenum Pub. Corp., 217 (1976)] (Experiment No. 1) or fed standard diet Altromin (Experiment No. 2). "Altromin" is a trade mark.
(§2) The compounds were suspended in "Methocel" (methyl cellulose, a 0.5% suspension in water) and administered by stomach tube at the dose of 50 mg/kg for 4 days.
(§3) Groups of animals were treated with the suspending agent only (control groups).
(§4) The total serum cholesterol was determined with the method of Trinder P. J. [J. Clin. Pathol., 22, 246 (1969)].
The serum triglycerides were determined with the method of Mendez J. [J. Clin. Chem., 21, 768, (1975)].
(§5) The total serum HDL cholesterol was determined according to Demacker P. N. M. [Clin. Chem., 23, 1238, (1977)]. The total β-lipoprotein cholesterol was determined by difference between total serum cholesterol and HDL cholesterol.
W.--J. Amer. Stat. Ass., 50, 1096 (1955)]. Taking in account the ratio between α and β lipoprotein cholesterol it was necessary to make the variances homogeneous by a transformation of the values (√x).

[2] = tested on: collagen-induced platelet aggregation; test: in vitro collagen-induced platelet aggregation in platelet rich plasma (method of Born); type: cell-based; details: final 25 mcg/ml; induced by 2 mcg/ml collagen; Guinea pig platelet rich plasma
Method: The compounds of the invention are also endowed with blood platelet-antiaggregating activity. This activity was evaluated e.g. "in vitro" on the basis of the ability of the test compounds to inhibit the collagen-induced platelet aggregation in Guinea pig platelet rich plasma according to the method of Born "Born G.V.R.--Nature, […] (1962)].

[3] = tested on: Icem: CER (SPF Caw) male rats fed hypercholesterolaemic diet; test: Experiment No. 1: serum lipids in rats fed hypercholesterolaemic diet; type: in vivo, rat; details: 50 mg/kg/os for 4 days, *** p < 0.01
Method: as §1, §2, §3, §4, §5
Statistical analysis in experiment No. 1 was performed by the Student's test for independent samples or by the Cochran's t test when the variances were not homogeneous at the F ratio test [Bliss C. I.--Statistics in Biology, Vol. 1, page 213--Mc Graw Hill Book Company, New York, 1967; Cochran W. G., Cox G. M.--Experimental designs--J. Wiley e Sons Inc., New York, II Ed. (1968) page 100].
The Table 1 reports the values of serum total cholesterol and total HDL cholesterol and ratio between α and β lipoprotein total cholesterol from animals fed hypercholesterolaemic diet and treated with two compounds of the invention: 3-(1-imidazolyl)-2,3-dihydro-6-chloro-4H-1-benzopyran-4-one: compound A, and 3-(1-imidazolyl)-2,3-dihydro-6-chloro-4H-1-benzopyran-4-ol (trans isomer): compound B, in comparison with the values of the same variables in controls.

O=C1c2cc(Cl)ccc2OCC1n1ccnc1 (stereo not drawn) [Compound A, 3-(1-imidazolyl)-2,3-dihydro-6-chloro-4H-1-benzopyran-4-one]
Serum HDL total cholesterol, mean ± S.E. [1]: 52.3 ± 2.5 mg/100 ml | Serum triglycerides, mean ± S.E. [1]: 77.2 ± 7.0 mg/100 ml | Total serum cholesterol, mean ± S.E. [1]: 73.4 ± 3.0 mg/100 ml | α/β lipoprotein total cholesterol, mean [1]: 1.450 | inhibition of platelet aggregation [2]: inhibit wholly | Serum HDL total cholesterol, mean ± S.E. [3]: 44.3 ± 1.3 mg/100 ml | Total serum cholesterol, mean ± S.E. [3]: 133.2 ± 10.1 mg/100 ml | α/β lipoprotein cholesterol, mean ± S.E. [3]: 0.548 ± 0.052

O[C@H]1c2cc(Cl)ccc2OC[C@@H]1n1ccnc1 (relative stereo) [Compound B, 3-(1-imidazolyl)-2,3-dihydro-6-chloro-4H-1-benzopyran-4-ol (trans isomer)]
Serum HDL total cholesterol, mean ± S.E. [1]: 50.3 ± 1.7 mg/100 ml | Serum triglycerides, mean ± S.E. [1]: 90.6 ± 6.1 mg/100 ml | Total serum cholesterol, mean ± S.E. [1]: 72.4 ± 2.3 mg/100 ml | α/β lipoprotein total cholesterol, mean [1]: 1.432 | Serum HDL total cholesterol, mean ± S.E. [3]: 47.6 ± 2.4 mg/100 ml | Total serum cholesterol, mean ± S.E. [3]: 184.4 ± 19.7 mg/100 ml | α/β lipoprotein cholesterol, mean ± S.E. [3]: 0.3664 ± 0.055
